Results from patent US20180318311A1, “TRICYCLIC 2-QUINOLINONES AS ANTIBACTERIALS” (priority 2017, published 2018).
In brackets after ≈: the same amount, converted by molar mass. Where a name gives a salt, the structure may show the parent alone.

Legend:
Assay type in all cases: cell-based
[1] = system: E. faecalis ATCC 29212 (NB04001); assay: MIC by broth microdilution, E. faecalis NB04001; details: 35° C., 20 hours; for MIC: Enterococcus faecalis, ATCC29212, CAMHB, read-out: Antibacterial activity (MIC) NB04001
Outline: (§1)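 MIC in μg/mL taken as the lowest concentration with no visible growth, checked by 600 nm reading after 20 h at 35°C, ambient air. Strains tested per CLSI microdilution in cation-adjusted Mueller-Hinton broth at about 5×10^5 CFU/mL, compounds as two-fold series, 1% DMSO final.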

[2] = system: P. aeruginosa NB52019, wild-type PAO1 strain; assay: MIC by broth microdilution, P. aeruginosa NB52019; details: CAMHB, 35° C., 20 hours; for MIC: Pseudomonas aeruginosa, read-out: Antibacterial activity (MIC) NB52019
Outline: as §1

[3] = system: S. aureus NB01080 fluoroquinolone-resistant clinical isolate; assay: MIC by broth microdilution, S. aureus NB01080; details: CAMHB, 35° C., 20 hours; for MIC: Staphylococcus aureus, read-out: Antibacterial activity (MIC) NB01080
Outline: as §1

[4] = system: S. pneumoniae ATCC 25922 (NB07001); assay: MIC by broth microdilution, S. pneumoniae NB07001; details: for MIC: Streptococcus pneumoniae, ATCC25922, 20 h, read-out: Antibacterial activity (MIC) NB07001
Outline: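 CAMHB, ~5×10^5 CFU/mL, 2-fold serial dilutions (final DMSO 1%), 35° C, ambient air, 20 h. Read OD600 plus visual check; MIC = lowest conc. with no visible growth, μg/mL.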

[5] = system: E. coli ATCC 25922 (NB27001); assay: MIC by broth microdilution, E. coli NB27001; details: 35° C., 20 hours; for MIC: Escherichia coli, ATCC25922, CAMHB, read-out: Antibacterial activity (MIC) NB27001
Outline: as §1

[6] = system: S. aureus ATCC 49951 (NB01006); assay: MIC by broth microdilution, S. aureus NB01006; details: 35° C., 20 hours; for MIC: Staphylococcus aureus, ATCC49951, CAMHB, read-out: Antibacterial activity (MIC) NB01006
Outline: as §1

[7] = system: S. aureus NB01006-AVR005, gyrA (S84L), grlA (580F) and grlB (E471K); assay: microbe, parasite or virus in culture; details: for MIC: Staphylococcus aureus, 20 h, read-out: Antibacterial activity (MIC) NB01006-AVR005
Outline: as §1

In the case of `C[C@H]1COc2c(N3CC[C@@H](C4(N)CCC4)C3)c(F)c(F)c3cc(C(=O)O)c(=O)n1c23` [Example 13.8, (S)-10-((R)-3-(1-aminocyclobutyl)pyrrolidin-1-yl)-8,9-difluoro-3-methyl-5-oxo-2,3-dihydro-5H-[1,4]oxazino[2,3,4-ij]quinoline-6-carboxylic acid], the MIC [1] was under 1 µg/mL, the MIC [2] was 1 to 32 µg/mL (≈ 2.38 to 76.3 µM) and the MIC [3] was under 1 µg/mL. For the same molecule, the MIC [4] was under 1 µg/mL, the MIC [5] was 1 to 32 µg/mL (≈ 2.38 to 76.3 µM) and the MIC [6] was under 1 µg/mL. For the same molecule, the MIC [7] was under 1 µg/mL.
`C[C@H]1COc2c(N3CC[C@@H](C4(N)CC4)C3)c(F)c(N)c3cc(C(=O)O)c(=O)n1c23` [Example 14, (S)-8-amino-10-((R)-3-(1-aminocyclopropyl)pyrrolidin-1-yl)-9-fluoro-3-methyl-5-oxo-2,3-dihydro-5H-[1,4]oxazino[2,3,4-ij]quinoline-6-carboxylic acid hydrochloride salt] gave an MIC [1] of under 1 µg/mL, an MIC [2] of over 32 µg/mL and an MIC [3] of 1 to 32 µg/mL. It also gave an MIC [4] of under 1 µg/mL, an MIC [5] of 1 to 32 µg/mL and an MIC [6] of under 1 µg/mL. It also gave an MIC [7] of 1 to 32 µg/mL.
Molecule `COc1c(N2CC[C@@H](C3(N)CC3)C2)c2c3c(cc(C(=O)O)c(=O)n3[C@@H](C)CO2)c1N` [Example 15, (S)-8-amino-10-((R)-3-(1-aminocyclopropyl)pyrrolidin-1-yl)-9-methoxy-3-methyl-5-oxo-2,3-dihydro-5H-[1,4]oxazino[2,3,4-ij]quinoline-6-carboxylic acid formate salt] has an MIC [1] of over 32 µg/mL, an MIC [2] of over 32 µg/mL and an MIC [3] of over 32 µg/mL. The MIC [4] was 1 to 32 µg/mL, the MIC [5] was over 32 µg/mL and the MIC [6] was over 32 µg/mL. The MIC [7] was over 32 µg/mL.
`COc1cc2cc(C(=O)O)c(=O)n3c2c(c1N1CC[C@@H](C2(N)CC2)C1)OC[C@@H]3C` [Example 16, (S)-10-((R)-3-(1-aminocyclopropyl)pyrrolidin-1-yl)-9-methoxy-3-methyl-5-oxo-2,3-dihydro-5H-[1,4]oxazino[2,3,4-ij]liquinoline-6-carboxylic acid formate salt] was tested, and the MIC [1] was over 32 µg/mL, the MIC [2] was over 32 µg/mL and the MIC [3] was over 32 µg/mL. For the same molecule, the MIC [4] was 1 to 32 µg/mL, the MIC [5] was over 32 µg/mL and the MIC [6] was over 32 µg/mL. The MIC [7] was over 32 µg/mL.
With `C[C@H]1COc2c(N3CC[C@@H](C4(N)CC4)C3)c(C#N)cc3cc(C(=O)O)c(=O)n1c23` [Example 17, (S)-10-((R)-3-(1-aminocyclopropyl)pyrrolidin-1-yl)-9-cyano-3-methyl-5-oxo-2,3-dihydro-5H-[1,4]oxazino[2,3,4-ij]quinoline-6-carboxylic acid trifluoroacetate salt] the MIC [1] was under 1 µg/mL, the MIC [2] was over 32 µg/mL and the MIC [3] was 1 to 32 µg/mL. It also gave an MIC [4] of under 1 µg/mL, an MIC [5] of over 32 µg/mL and an MIC [6] of under 1 µg/mL. It also gave an MIC [7] of 1 to 32 µg/mL.
Molecule `C[C@H]1COc2c(N3CC[C@@H](C4(N)CC4)C3)c(Cl)cc3cc(C(=O)O)c(=O)n1c23` [Example 18, (S)-10-((R)-3-(1-aminocyclopropyl)pyrrolidin-1-yl)-9-chloro-3-methyl-5-oxo-2,3-dihydro-5H-[1,4]oxazino[2,3,4-ij]quinoline-6-carboxylic acid hydrochloride salt] has an MIC [1] of 1 to 32 µg/mL, an MIC [2] of over 32 µg/mL and an MIC [3] of 1 to 32 µg/mL. For the same molecule, the MIC [4] was under 1 µg/mL, the MIC [5] was over 32 µg/mL and the MIC [6] was 1 to 32 µg/mL. It also gave an MIC [7] of over 32 µg/mL.
With `C[C@H]1COc2c(N3CC[C@@H](C4(N)CC4)C3)c(F)c(Cl)c3cc(C(=O)O)c(=O)n1c23` [Example 19.1, (S)-10-((R)-3-(1-aminocyclopropyl)pyrrolidin-1-yl)-8-chloro-9-fluoro-3-methyl-5-oxo-2,3-dihydro-5H-[1,4]oxazino[2,3,4-ij]quinoline-6-carboxylic acid formate salt] the MIC [1] was under 1 µg/mL, the MIC [2] was over 32 µg/mL and the MIC [3] was under 1 µg/mL. It also gave an MIC [4] of under 1 µg/mL, an MIC [5] of 1 to 32 µg/mL and an MIC [6] of under 1 µg/mL. It also gave an MIC [7] of under 1 µg/mL.
`C[C@H](N)[C@@H]1CCN(c2c(F)c(Cl)c3cc(C(=O)O)c(=O)n4c3c2OC[C@@H]4C)C1` [Example 19.2, (S)-10-((R)-3-((S)-1-aminoethyl)pyrrolidin-1-yl)-8-chloro-9-fluoro-3-methyl-5-oxo-2,3-dihydro-5H-[1,4]oxazino[2,3,4-ij]quinoline-6-carboxylic acid] gave an MIC [1] of under 1 µg/mL, an MIC [2] of 1 to 32 µg/mL (≈ 2.44 to 78.1 µM) and an MIC [3] of under 1 µg/mL. It also gave an MIC [4] of under 1 µg/mL, an MIC [5] of under 1 µg/mL and an MIC [6] of under 1 µg/mL. It also gave an MIC [7] of under 1 µg/mL.
`C[C@H]1COc2c(N3CC[C@@H](C4(N)CC4)C3)cc(N)c3cc(C(=O)O)c(=O)n1c23` [Example 20, (S)-8-amino-10-((R)-3-(1-aminocyclopropyl)pyrrolidin-1-yl)-3-methyl-5-oxo-2,3-dihydro-5H-[1,4]oxazino[2,3,4-ij]quinoline-6-carboxylic acid] gave an MIC [1] of 1 to 32 µg/mL (≈ 2.6 to 83.2 µM), an MIC [2] of over 32 µg/mL and an MIC [3] of 1 to 32 µg/mL (≈ 2.6 to 83.2 µM). The MIC [4] was under 1 µg/mL, the MIC [5] was 1 to 32 µg/mL (≈ 2.6 to 83.2 µM) and the MIC [6] was under 1 µg/mL. It also gave an MIC [7] of 1 to 32 µg/mL (≈ 2.6 to 83.2 µM).
Molecule `C[C@H]1COc2c(N3CC[C@@H](C4(N)CC4)C3)c(F)c(C#N)c3cc(C(=O)O)c(=O)n1c23` [Example 21.1, (S)-10-((R)-3-(1-aminocyclopropyl)pyrrolidin-1-yl)-8-cyano-9-fluoro-3-methyl-5-oxo-2,3-dihydro-5H-[1,4]oxazino[2,3,4-ij]quinoline-6-carboxylic acid trifluoroacetate salt] has an MIC [1] of under 1 µg/mL, an MIC [2] of over 32 µg/mL and an MIC [3] of under 1 µg/mL. The MIC [4] was under 1 µg/mL, the MIC [5] was 1 to 32 µg/mL and the MIC [6] was under 1 µg/mL. It also gave an MIC [7] of under 1 µg/mL.
With `C[C@H]1COc2c(N3CC[C@@H](C4(N)CC4)C3)cc(C#N)c3cc(C(=O)O)c(=O)n1c23` [Example 21.2, (S)-10-((R)-3-(1-aminocyclopropyl)pyrrolidin-1-yl)-8-cyano-3-methyl-5-oxo-2,3-dihydro-5H-[1,4]oxazino[2,3,4-ij]quinoline-6-carboxylic acid] the MIC [1] was 1 to 32 µg/mL (≈ 2.54 to 81.1 µM), the MIC [2] was over 32 µg/mL and the MIC [3] was 1 to 32 µg/mL (≈ 2.54 to 81.1 µM). It also gave an MIC [4] of under 1 µg/mL, an MIC [5] of 1 to 32 µg/mL (≈ 2.54 to 81.1 µM) and an MIC [6] of under 1 µg/mL. The MIC [7] was 1 to 32 µg/mL (≈ 2.54 to 81.1 µM).
Molecule `Cc1c(F)c(N2CC[C@@H](C3(N)CC3)C2)c2c3c1cc(C(=O)O)c(=O)n3[C@@H](C)CO2` [Example 22, (S)-10-((R)-3-(1-aminocyclopropyl)pyrrolidin-1-yl)-9-fluoro-3,8-dimethyl-5-oxo-2,3-dihydro-5H-[1,4]oxazino[2,3,4-ij]quinoline-6-carboxylic acid] has an MIC [1] of under 1 µg/mL, an MIC [2] of over 32 µg/mL and an MIC [3] of under 1 µg/mL. For the same molecule, the MIC [4] was under 1 µg/mL, the MIC [5] was 1 to 32 µg/mL (≈ 2.49 to 79.7 µM) and the MIC [6] was under 1 µg/mL. The MIC [7] was 1 to 32 µg/mL (≈ 2.49 to 79.7 µM).
`CCc1c(F)c(N2CC[C@@H](C3(N)CC3)C2)c2c3c1cc(C(=O)O)c(=O)n3[C@@H](C)CO2` [Example 23, (S)-10-((R)-3-(1-aminocyclopropyl)pyrrolidin-1-yl)-8-ethyl-9-fluoro-3-methyl-5-oxo-2,3-dihydro-5H-[1,4]oxazino[2,3,4-ij]quinoline-6-carboxylic acid] was tested, and the MIC [1] was 1 to 32 µg/mL (≈ 2.41 to 77 µM), the MIC [2] was over 32 µg/mL and the MIC [3] was 1 to 32 µg/mL (≈ 2.41 to 77 µM). It also gave an MIC [4] of 1 to 32 µg/mL (≈ 2.41 to 77 µM), an MIC [5] of over 32 µg/mL and an MIC [6] of 1 to 32 µg/mL (≈ 2.41 to 77 µM). For the same molecule, the MIC [7] was over 32 µg/mL.
In the case of `COc1c(N2C[C@@H]3CCCN[C@@H]3C2)c(F)cc2c(=O)c(C(=O)O)cn(C3CC3)c12` [MOX, moxifloxacin, reference compound], the MIC [1] was under 1 µg/mL, the MIC [2] was 1 to 32 µg/mL (≈ 2.49 to 79.7 µM) and the MIC [3] was over 32 µg/mL. It also gave an MIC [4] of under 1 µg/mL, an MIC [5] of under 1 µg/mL and an MIC [6] of under 1 µg/mL. For the same molecule, the MIC [7] was 1 to 32 µg/mL (≈ 2.49 to 79.7 µM).
“(S)-9-fluoro-3-methyl-10-((R)-3-(1-((2,2,2-trifluoroacetyl)-14-azanyl)cyclopropyl)pyrrolidin-1-yl)-2,3-dihydro-5H-[1,4]oxazino[2,3,4-ij]quinolin-5-one trifluoroacetate salt [Example 6.1]” was tested, and the “Antibacterial activity (MIC) NB04001” value ([1]; CAMHB) was “A (1 > A)”, the “Antibacterial activity (MIC) NB52019” value [2] was “C (C ≥ 32)” and the “Antibacterial activity (MIC) NB01080” value [3] was “A (1 > A)”. The “Antibacterial activity (MIC) NB07001” value ([4]; S. pneumoniae, CAMHB supplemented with 5% lysed horse blood, 35° C., 20 hours) was “A (1 > A)”, the “Antibacterial activity (MIC) NB27001” value ([5]; CAMHB) was “B (32 > B ≥ 1)” and the “Antibacterial activity (MIC) NB01006” value ([6]; CAMHB) was “A (1 > A)”. For the same molecule, the “Antibacterial activity (MIC) NB01006-AVR005” value ([7]; ciprofloxacin-selected S. aureus mutant, CAMHB, 35° C., 20 hours) was “A (1 > A)”.
